Consider 14 compounds from ChEMBL document CHEMBL5370630, “Design, Synthesis, and Biological Evaluation of SSE1806, a Microtubule Destabilizer That Overcomes Multidrug Resistance” (2023).

For test [1], the system named is HCT-116. Description: Antiproliferative activity against human HCT-116 cells incubated for 72 hrs by SRB proliferation assay. The class given is functional. Background: The SRB assay estimates cell density from bound dye.
Test [2] deals with CAL-51. The test can be described thus: Antiproliferative activity against human CAL-51 cells incubated for 72 hrs by SRB proliferation assay. Format: functional.
Test [3] has as its target T1, Tubulin (Homo sapiens) (UniProt P68371+Q9H4B7+P0DPH7+P68366+Q13509+Q71U36+P04350+Q3ZCM7+P07437+P68363+Q9BQE3+Q6PEY2+Q13885+Q9BVA1+Q9BUF5). Description: Inhibition of microtubule polymerization in human HCT-116 cells assessed as increase in soluble tubulin level at 1.25 to 5 times GI50 incubated for 5 mins by immunoblot analysis. Format: cell-based. In general terms: In western blotting, separated proteins are transferred to a membrane and probed.

For test [4], the target named is T1, Tubulin (Homo sapiens). Description: Inhibition of microtubule re-polymerization in human A549 cells at 5 times GI50 preincubated for 30 min on ice followed by incubation at 37 degreeC for 10 mins by immunofluorescence analysis. Format: cell-based. To be noted: time 40.0 min.
Test [5] concerns the target T1, Tubulin (Homo sapiens). The test can be described thus: Inhibition of microtubule polymerization in human HCT-116 cells assessed as decrease in polymeric tubulin level at 1.25 to 5 times GI50 incubated for 5 mins by immunoblot analysis. Format: cell-based.
Test [6] concerns CAL-51. The test can be described thus: Induction of mitotic arrest in human CAL-51 cells assessed as upregulation of histone H3 phosphorylation at S10 residue at 25 uM incubated for 8 hrs by dot blot assay. The class given is functional, cell-based.
Test [7] relates to HCT-116. The test can be described thus: Induction of cell cycle arrest in human HCT-116 cells accumulation of cells at G2/M phase incubated for 12 hrs by PI staining based flow cytometry analysis. Format: functional.
The subject of test [8] is A549. The test can be described thus: Induction of mitotic cell arrest in human A549 cells assessed as defective spindles at 5 times GI50 incubated for 24 hrs by immunofluorescence based confocal microscopic analysis. The class given is functional.
Test [9] has as its system HCT-116. The test can be described thus: Induction of mitotic arrest in human HCT-116 cells assessed as upregulation of histone H3 phosphorylation at S10 residue at 1.25 to 5 times GI50 measured for 8 to 16 hrs by Western blot analysis. The class given is functional, cell-based. The following applies: time 8-16 hrs.
Test [10] has as its system KB 3-1. Description: Antitumor activity against human KB-3-1 cells by MTS assay. Format: functional. Background: Formazan colour is commonly taken as a measure of viable cells.
Test [11] is described as follows: Anticancer activity against mouse colon cancer organoids expressing Apc fl/fl-Kras G12D-Tp53 KO-Smad4 KO assessed as inhibition of cell viability measured after 4 days by Cell Titer Glo assay. To be noted: Colon cancer organoid, 96 h, time 4 day. Format: functional.
In test [12] the test system is KB-V1. Description: Inhibition of P-gp in human KB-V1 cells at 5 uM by calcein AM efflux assay. Format: functional, cell-based.
Test [13] is described as follows: Resistance index, ratio of GI50 for multidrug resistant human KB-V1 cells to GI50 for human KB-3-1 cells. The class given is functional.
The next test concerns HCC1954. Description: Antitumor activity against human HCC1954 cells by MTS assay. Format: functional.
The test system of test [14] is KB 3-1. The test can be described thus: Cytotoxicity against human KB-3-1 cells assessed as inhibition of cell proliferation. The class given is functional.
The next test relates to MCF7. The test can be described thus: Antitumor activity against human MCF7 cells by MTS assay. Format: functional.
Another test deals with MOLM-13. Description: Antitumor activity against human MOLM-13 cells by MTS assay. Format: functional.
A further test deals with K562. The test can be described thus: Antitumor activity against human K562 cells by MTS assay. The class given is functional.
For test [15], the system named is KB-V1. The test can be described thus: Induction of apoptosis in multidrug resistant human KB-V1 cells assessed as increase in PARP cleavage at 1.25 to 5 uM incubated for 24 hrs by Western blot analysis. The class given is functional, cell-based. To be noted: dose 1.25-5 µM.
For test [16], the target named is T1, Tubulin (Homo sapiens). Description: Inhibition of microtubule polymerization (unknown origin) at 10 uM incubated for 1 hr by turbidimetric assay relative to control. Format: protein-complex assay.
Test [17] concerns A549. The test can be described thus: Induction of mitotic arrest in human A549 cells assessed as increase in mitotic index by measuring histone H3 phosphorylation at S10 residue at 5 times GI50 incubated for 24 hrs by immunofluorescence analysis. The class given is functional, cell-based.
Test [18] relates to A549. The test can be described thus: Induction of mitotic cell arrest in human A549 cells assessed as chromosome misalignment at 5 times GI50 incubated for 24 hrs by immunofluorescence based confocal microscopic analysis. Format: functional.
For test [19], the system named is HCT-116. Description: Induction of apoptosis in human HCT-116 cells assessed as increase in p53 expression at 1.25 to 5 times GI50 incubated for 24 to 36 hrs by Western blot analysis. To be noted: time 24-36 hrs. Format: functional, cell-based.
For test [20], the system named is KB 3-1. Description: Induction of apoptosis in human KB-3-1 cells assessed as increase in PARP cleavage at 1.25 to 5 uM incubated for 24 hrs by Western blot analysis. Format: functional, cell-based. The following applies: dose 1.25-5 µM.
Test [21] has as its system HCT-116. Description: Induction of apoptosis in human HCT-116 cells assessed as increase in apoptotic cell death at 2.5 to 5 times GI50 incubated for 24 hrs by Annexin V/PI staining based flow cytometric analysis. Format: functional.
Test [22] in a line: Anticancer activity against human colon cancer organoids assessed as inhibition of cell viability measured after 4 days by Cell Titer Glo assay. Format: functional. The following applies: Colon cancer organoid, 96 h, time 4 day.
The test system of a further test is MV4-11. The test can be described thus: Antitumor activity against human MV4-11 cells by MTS assay. Format: functional.
Test [23] deals with HCT-116. Description: Induction of apoptosis in human HCT-116 cells assessed as increase in PARP cleavage at 1.25 to 5 times GI50 incubated for 24 to 36 hrs by Western blot analysis. The following applies: time 24-36 hrs. The class given is functional, cell-based.
The subject of the next test is BT-549. The test can be described thus: Antitumor activity against human BT-549 cells by MTS assay. Format: functional.
In test [24] the test system is KB-V1. Description: Cytotoxicity against multidrug resistant human KB-V1 cells assessed as inhibition of cell proliferation. The class given is functional.
For test [25], the system named is KB 3-1. Description: Induction of apoptosis in human KB-3-1 cells assessed as increase in PARP cleavage at 100 uM incubated for 24 hrs by Western blot analysis. Format: functional, cell-based.

Calls of active or inactive are those of the source. The rule behind the calls is not given here.

The GI50 is the concentration that inhibits growth by half. With `O=C1CCCC2=C1C(c1ccc(F)c(F)c1)c1cc3c(cc1N2)OCCO3` (stereo unspecified), the concentration for 50% growth inhibition (GI50) worked out at 5.44 µM in the test on HCT-116 [1] and 7.94 µM in the test on CAL-51 [2].
Turning to `COC(=O)Nc1nc2cc(C(=O)c3cccs3)ccc2[nH]1` [NOCODAZOLE], the inhibition result on Tubulin (Homo sapiens) [3], at Tubulin (Homo sapiens) [4] and at Tubulin (Homo sapiens) [5] was “Active” in each case. For the same compound, the GI50 in the test on HCT-116 [1] is 0.24 µM; in the test on CAL-51 [2], 0.209 µM.
Consider `CC[C@]1(O)C[C@H]2CN(CCc3c([nH]c4ccccc34)[C@@](C(=O)OC)(c3cc4c(cc3OC)N(C=O)[C@H]3[C@@](O)(C(=O)OC)[C@H](OC(C)=O)[C@]5(CC)C=CCN6CC[C@]43[C@@H]65)C2)C1` [VINCRISTINE], for which the GI50 stood at 0.006 µM in the test with HCT-116 [1] and 0.089 µM in the test on CAL-51 [2].
`O=C1CCCC2=C1C(c1cccc(Cl)c1)c1cc3c(cc1N2)OCCO3` (stereo unspecified): the concentration for 50% growth inhibition (GI50) in the test with HCT-116 [1] was 18.4 µM; in the test on CAL-51 [2], 12.6 µM. The outcome with CAL-51 [6] was Active.
In the same order, the values of `O=C1CCCC2=C1C(c1ccco1)c1cc3c(cc1N2)OCCO3` (stereo unspecified) are 9.85 µM, 11.8 µM and “Active”.
With `COc1ccc(OC)c(C2C3=C(CCCC3=O)Nc3cc4c(cc32)OCCO4)c1` (stereo unspecified), the figures for the GI50 in the test with HCT-116 [1] and in the test on CAL-51 [2] were 12.2 µM and 20.9 µM, respectively.
The matching figures for `O=C1CCCC2=C1C(c1cccc(F)c1F)c1cc3c(cc1N2)OCCO3` (stereo unspecified): 4.64 µM and 4.63 µM.
The matching figures for `CN1C2=C(C(=O)CCC2)C(c2ccc(Br)cc2)c2cc3c(cc21)OCCO3` (stereo unspecified): 17.3 µM and 23.7 µM.
On to `O=C1CCCC2=C1C(c1cccc([N+](=O)[O-])c1)c1cc3c(cc1N2)OCCO3` (stereo unspecified), for which, in the test with HCT-116 [7], the Activity result is “Dose-Dependent Effect”. The inhibition result at Tubulin (Homo sapiens) [3], at Tubulin (Homo sapiens) [4], at Tubulin (Homo sapiens) [5] and on Tubulin (Homo sapiens) [16] was “Active” in each case. Moreover, the result in the test on A549 [8], in the test on HCT-116 [9], with KB-V1 [15], in the test on CAL-51 [6], in the test on A549 [17] and with A549 [18] was Active. The result in the test on HCT-116 [19], in the test with KB 3-1 [20], with HCT-116 [21] and in the test with HCT-116 [23] was Active. Besides, the GI50 with HCT-116 [1] was found to be 2.01 µM; with KB 3-1 [10], 1.29 µM; in [11], 7.16 µM; with HCC1954, 21.2 µM; with KB 3-1 [14] it was 1.29 µM; with MCF7 it was 5.02 µM. For the same compound, the GI50 came out at 4.23 µM in the test with MOLM-13; 3.3 µM in the test on CAL-51 [2]; 17.7 µM in the test on K562; 11.6 µM in [22]; 9.45 µM in the test with MV4-11; 7.05 µM in the test with BT-549. Moreover, in the test with KB-V1 [24], the GI50 was found to be 1.74 µM. Further, in the test with KB-V1 [12], the inhibition entry was “inactive”. For the same compound, the RatioGI50 in test [13] stood at 1.35.
As to `COc1cc(C2C3=C(CCCC3=O)Nc3cc4c(cc32)OCCO4)cc(OC)c1OC` (stereo unspecified), the GI50 came to 3.33 µM in the test on HCT-116 [1] and 4.15 µM with CAL-51 [2]. For the same compound, in the test with CAL-51 [6], the result was Active.
For `CC(=O)O[C@H]1C(=O)[C@@]2(C)[C@H]([C@H](OC(=O)c3ccccc3)[C@]3(O)C[C@H](OC(=O)[C@H](O)[C@@H](NC(=O)c4ccccc4)c4ccccc4)C(C)=C1C3(C)C)[C@]1(OC(C)=O)CO[C@@H]1C[C@@H]2O` [PACLITAXEL], in the test with KB 3-1 [25], the result was Active. The RatioGI50 in test [13] is given as 193.51. Also, the concentration for 50% growth inhibition (GI50) in the test with KB 3-1 [14] came to 0.00223 µM; in the test with KB-V1 [24] it was 0.432 µM.
Take `COc1cccc(C2C3=C(CCCC3=O)Nc3cc4c(cc32)OCCO4)c1` (stereo unspecified): the GI50 in the test on HCT-116 [1] turned out to be 11.9 µM; with CAL-51 [2] it was 12.7 µM. Moreover, the outcome in the test on CAL-51 [6] was Active.
Consider `COc1cc([C@@H]2c3cc4c(cc3[C@H](O)[C@H]3COC(=O)[C@H]23)OCO4)cc(OC)c1OC` [PODOFILOX], for which the GI50 in the test with HCT-116 [1] and in the test on CAL-51 [2] was 0.013 µM each time.
Consider `O=C1CCCC2=C1C(c1ccccc1)c1cc3c(cc1N2)OCCO3` (stereo unspecified), for which the GI50 in the test with HCT-116 [1] was > 100 µM; in the test with CAL-51 [2], 9.53 µM. Besides, in the test with CAL-51 [6], the outcome was Active.
